Results reported in patent US11667651B2, “Aminopyridine derivatives as phosphatidylinositol phosphate kinase inhibitors” (HiberCell, Inc., priority 2017, dated 2023).

Tests used:
[1] = target: T1, PIP4K2B (Homo sapiens, UniProt P78356); assay: Trans-FI P kinase assay PIP4K2B (Table 4); type: biochemical; conditions: compounds listed under IC50 bins; read-out: Trans-FI P kinase assays: PIP4K2B IC50
T1 construct: made in house; host or cells: E. coli
T1 sequence (P78356 1-416): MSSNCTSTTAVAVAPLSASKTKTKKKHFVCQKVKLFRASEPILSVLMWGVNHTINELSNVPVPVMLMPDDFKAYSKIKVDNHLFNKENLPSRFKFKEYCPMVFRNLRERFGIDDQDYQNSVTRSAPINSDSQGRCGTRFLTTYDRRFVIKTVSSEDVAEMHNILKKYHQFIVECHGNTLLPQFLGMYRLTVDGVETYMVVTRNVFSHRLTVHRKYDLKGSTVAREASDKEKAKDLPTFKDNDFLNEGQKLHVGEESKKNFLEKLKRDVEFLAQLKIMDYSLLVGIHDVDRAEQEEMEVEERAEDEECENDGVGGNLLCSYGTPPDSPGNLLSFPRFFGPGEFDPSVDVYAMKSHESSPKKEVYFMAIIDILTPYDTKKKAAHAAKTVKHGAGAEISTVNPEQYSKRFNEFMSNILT
From the text: GST tagged PIP4KtypeIIA and B enzymes were overexpressed in E. Coli and purified to >80% homogeneity. Phosphatidyl inositol-5-phosphate (PI5P, Cat. #850152, Avanti Polar Lipids Inc.) was used as the lipid substrate and phosphatidyl ethanolamine (DOPE 18:1, Cat. #850725, Avanti Polar Lipids Inc.) was used as the carrier lipid for assays. Ultrapure ATP and GTP was purchased from Bellbrooke Labs. ADP Glo reagents were obtained from Promega. Transcreener FI reagent was obtained from Bellbrooke labs.
GST-tagged PIP4KtypeIIB (3.4 μL, 2.77 mg/mL) was diluted to 5 mL using HNE buffer to yield 5× enzyme stock (25 nM)
Lipid Preparation: In a 10 mL pyrex glass vial, […] were suspended in 2.5 mL of HEPES buffer mix and 2.5 mL of H:E buffer. The contents were mixed and sonicated for 3 min to yield a translucent lipid stock.
Compound Preparation: Compounds were stored as 5 mM stocks in neat DMSO as room temperature in glass vials. 5 mM stocks were diluted to 2 mM and then serially diluted (3×) in neat DMSO in 96 well polypropylene plates. From the serially diluted stocks, 3 μL was delivered into 250 μL of 25% DMSO (in water) to generate 5× compound stocks. Typically, the highest compound conc. was 24 μM.
The assay volume was kept at 25 μL. To each well of the reaction plate, 10 μL of lipid stock (1:1 ratio PI5P:DOPE) was delivered. This was followed by the addition of 5 μL of compound in 25% DMSO. Then, to each well, 5 μL of 25 nM (5×) typeIIB enzyme was delivered. The contents were mixed well and incubated for 1 h at 27° C. After 1 h, reaction was initiated by adding 5 μL of 500 μM GTP and the contents were mixed well with a multi-channel pipetteman. The final concentration of the reagents are as follows: 50 mM HEPES, pH 7.3, 10 mM MgCl2, 20 mM NaCl, 0.01% v/v triton-X100, 5% DMSO, 100 μM GTP, 80 μM (2 μg) PI5P, 2 μg DOPE, and 5 nM PIP4KIIB Typically, the highest conc. of compounds was 4.8 μM and the lowest conc. was 0.
After 2 h, the reaction was quenched by adding 25 μL of transcreener FI reagent. The contents were incubated at rt for 1 h and the Fluorescence (Ex: 584 Em: 623) was read using Molecular Devices Paradigm plate reader. […] The blanks were averaged and subtracted from all other wells. Using a calibration curve, RFU was converted to μM GDP (product). IC50 was calculated by plotting the residual activity (expressed as % No inhibitor control) vs. log [Inh. conc.]

[2] = target: T2, PIP4K2A (Homo sapiens, UniProt P48426); assay: Kinase Assay PIP4K2 A (Table 2); type: biochemical; design: 4 nM PIP4K2A (full length protein, SignalChem); purchased SignalChem; conditions: compounds listed under IC50 bins
T2 sequence (P48426 1-406): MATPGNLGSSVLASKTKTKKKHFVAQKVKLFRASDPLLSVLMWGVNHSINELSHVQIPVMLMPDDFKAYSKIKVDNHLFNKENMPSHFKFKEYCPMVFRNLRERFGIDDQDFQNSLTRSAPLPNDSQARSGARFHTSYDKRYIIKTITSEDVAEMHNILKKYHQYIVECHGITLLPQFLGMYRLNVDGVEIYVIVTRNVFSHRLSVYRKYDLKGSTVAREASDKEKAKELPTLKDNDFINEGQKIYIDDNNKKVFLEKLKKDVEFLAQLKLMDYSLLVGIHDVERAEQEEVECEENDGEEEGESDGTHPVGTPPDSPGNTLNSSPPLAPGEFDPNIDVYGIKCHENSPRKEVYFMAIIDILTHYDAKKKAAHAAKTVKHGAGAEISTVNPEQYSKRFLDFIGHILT
In short: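 ADP-Glo luminescent read-out after 1 h room-temperature kinase reaction, started with 60 μM ATP solution following 15 min compound pre-incubation. Enzyme/substrate mix: 4 nM full-length PIP4K2A plus 100 μM PI(5)P diC8; buffer MOPS pH 7.2 with 25 mM MgCl2 and Tween 20. IC50 from 10-point, 3-fold titrations normalized to DMSO.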

Row | SMILES | IC50 [1] [nM] | IC50 [2] [nM]
1 | Cn1cnnc1N1CC=C(c2ccc(Nc3cnc4c(c3)N3C(=O)CC[C@H]3CO4)nc2)CC1 [Example 274, (S)-2-((1′-(4-methyl-4H-1,2,4-triazol-3-yl)-1′,2′,3′,6′-tetrahydro-[3,4′-bipyridin]-6-yl)amino)-6,6a,7,8-tetrahydro-9H-pyrido[2,3-b]pyrrolo[1,2-d][1,4]oxazin-9-one] | 10 to 100 | 100 to 1000
2 | COC1CN(c2nc(Nc3cnc4c(c3)N3C(=O)CC[C@H]3CO4)ncc2-c2ccc(N3CCCC3=O)cc2)C1 [Example 286, (S)-2-((4-(3-methoxyazetidin-1-yl)-5-(4-(2-oxopyrrolidin-1-yl)phenyl)pyrimidin-2-yl)amino)-6,6a,7,8-tetrahydro-9H-pyrido[2,3-b]pyrrolo[1,2-d][1,4]oxazin-9-one] | 1 to 10 | 1 to 10
3 | COc1nc(Nc2cnc3c(c2)N2C(=O)CC[C@H]2CO3)ncc1-c1ccc(-n2nncc2C)cc1 [Example 288, (S)-2-((4-methoxy-5-(4-(5-methyl-1H-1,2,3-triazol-1-yl)phenyl)pyrimidin-2-yl)amino)-6,6a,7,8-tetrahydro-9H-pyrido[2,3-b]pyrrolo[1,2-d][1,4]oxazin-9-one] | 1 to 10 | ≤ 1
4 | O=C1CCCN1c1ccc(-c2cnc(Nc3cnc4c(c3)N3C(=O)CC[C@H]3CO4)nc2N2CCOCC2)cc1 [Example 280, (S)-2-((4-morpholino-5-(4-(2-oxopyrrolidin-1-yl)phenyl)pyrimidin-2-yl)amino)-6,6a,7,8-tetrahydro-9H-pyrido[2,3-b]pyrrolo[1,2-d][1,4]oxazin-9-one] | 1 to 10 | ≤ 1
5 | CN(C)C(=O)c1ccc(-c2ccc(Nc3cnc4c(c3)N(C(=O)C(C)(C)C)CCO4)nc2)cc1 [Example 97, N,N-dimethyl-4-(6-((1-pivaloyl-2,3-dihydro-1H-pyrido[2,3-b][1,4]oxazin-7-yl)amino)pyridin-3-yl)benzamide] | 10 to 100 | 1 to 10
6 | CC(O)C(=O)N1CCOc2ncc(Nc3ccc(-c4ccc(C(=O)N(C)C)cc4)cn3)cc21 (stereo not drawn) [Example 92, 4-(6-((1-(2-hydroxypropanoyl)-2,3-dihydro-1H-pyrido[2,3-b][1,4]oxazin-7-yl)amino)pyridin-3-yl)-N,N-dimethylbenzamide] | 10 to 100 | 1 to 10
7 | COCc1cc(Nc2cnc3c(c2)N2C(=O)CC[C@H]2CO3)ncc1-c1ccc(-c2nocc2C)cc1 [Example 282, (S)-2-((4-(methoxymethyl)-5-(4-(4-methylisoxazol-3-yl)phenyl)pyridin-2-yl)amino)-6,6a,7,8-tetrahydro-9H-pyrido[2,3-b]pyrrolo[1,2-d][1,4]oxazin-9-one] | 10 to 100 | 1 to 10
8 | CN(C)C(=O)c1ccc(-c2ccc(Nc3cncc(NC(=O)c4cccc(N)c4)c3)nc2)cc1 [Example 99, 4-(6-((5-(3-aminobenzamido)pyridin-3-yl)amino)pyridin-3-yl)-N,N-dimethylbenzamide] | 10 to 100 | 10 to 100
9 | COc1nc(Nc2cnc3c(c2)N2C(=O)CC[C@H]2CO3)ncc1-c1ccc(C(=O)N(C)C)cc1 [Example 294, (S)-4-(4-methoxy-2-((9-oxo-6a,7,8,9-tetrahydro-6H-pyrido[2,3-b]pyrrolo[1,2-d][1,4]oxazin-2-yl)amino)pyrimidin-5-yl)-N,N-dimethylbenzamide] | 1 to 10 | 1 to 10
10 | Cc1cnnn1-c1ccc(-c2ccc(Nc3cnc4c(c3)N3C(=O)CC[C@H]3CO4)nc2)cc1 [Example 289, (S)-2-((5-(4-(5-methyl-1H-1,2,3-triazol-1-yl)phenyl)pyridin-2-yl)amino)-6,6a,7,8-tetrahydro-9H-pyrido[2,3-b]pyrrolo[1,2-d][1,4]oxazin-9-one] | 1 to 10 | 1 to 10
11 | COCc1nc(Nc2cnc3c(c2)N2C(=O)CC[C@H]2CO3)ncc1-c1ccc(C(=O)N(C)C)cc1 [Example 293, (S)-4-(4-(methoxymethyl)-2-((9-oxo-6a,7,8,9-tetrahydro-6H-pyrido[2,3-b]pyrrolo[1,2-d][1,4]oxazin-2-yl)amino)pyrimidin-5-yl)-N,N-dimethylbenzamide] | 10 to 100 | 10 to 100
12 | Cc1cnnn1-c1ccc(-c2cnc(Nc3cnc4c(c3)N3C(=O)CC[C@H]3CO4)nc2C(C)C)cc1 [Example 278, (S)-2-((4-isopropyl-5-(4-(5-methyl-1H-1,2,3-triazol-1-yl)phenyl)pyrimidin-2-yl)amino)-6,6a,7,8-tetrahydro-9H-pyrido[2,3-b]pyrrolo[1,2-d][1,4]oxazin-9-one] | 1 to 10 | ≤ 1
13 | CN(C)C(=O)c1ccc(-c2ccc(Nc3cnc4c(c3)NC(=O)CO4)nc2)cc1 [Example 88, N,N-dimethyl-4-(6-((2-oxo-2,3-dihydro-1H-pyrido[2,3-b][1,4]oxazin-7-yl)amino)pyridin-3-yl)benzamide] | > 1000 | 100 to 1000
14 | O=C1CCCN1c1ccc(-c2cnc(Nc3cnc4c(c3)N3C(=O)CC[C@H]3CO4)cc2OC2CCC2)cc1 [Example 284, (S)-2-((4-cyclobutoxy-5-(4-(2-oxopyrrolidin-1-yl)phenyl)pyridin-2-yl)amino)-6,6a,7,8-tetrahydro-9H-pyrido[2,3-b]pyrrolo[1,2-d][1,4]oxazin-9-one] | 1 to 10 | ≤ 1
15 | Cc1ccnnc1-c1ccc(-c2ccc(Nc3cnc4c(c3)N3C(=O)CC[C@H]3CO4)nc2)cc1 [Example 276, (S)-2-((5-(4-(4-methylpyridazin-3-yl)phenyl)pyridin-2-yl)amino)-6,6a,7,8-tetrahydro-9H-pyrido[2,3-b]pyrrolo[1,2-d][1,4]oxazin-9-one] | 1 to 10 | 1 to 10
16 | CN(C)C(=O)c1ccc(-c2ccc(Nc3cncc(N)c3)nc2)cc1 [Example 115, 4-(6-((5-aminopyridin-3-yl)amino)pyridin-3-yl)-N,N-dimethylbenzamide] | > 1000 | 100 to 1000
17 | CN(C)C(=O)c1ccc(-c2ccc(Nc3cnc4c(c3)N(C(=O)C3CC3)CCO4)nc2)cc1 [Example 90, 4-(6-((1-(cyclopropanecarbonyl)-2,3-dihydro-1H-pyrido[2,3-b][1,4]oxazin-7-yl)amino)pyridin-3-yl)-N,N-dimethylbenzamide] | 10 to 100 | 1 to 10
18 | Cc1cnoc1-c1ccc(-c2ccc(Nc3cnc4c(c3)N3C(=O)CC[C@H]3CO4)nc2)cc1 [Example 277, (S)-2-((5-(4-(4-methylisoxazol-5-yl)phenyl)pyridin-2-yl)amino)-6,6a,7,8-tetrahydro-9H-pyrido[2,3-b]pyrrolo[1,2-d][1,4]oxazin-9-one] | 10 to 100 | 1 to 10
